Source: ChEMBL document CHEMBL1201862, “PubChem BioAssay data set” (2004)
Activity calls are given as the source filed them.

Key:
[1] = biological target: DNA (cytosine-5)-methyltransferase 1 (Homo sapiens, UniProt P26358); test: DNMT1 methyltransferase inhibitors, confirmation, biochemical, fluorescent molecular beacon (AID 602386); type: functional
[2] = biological target: T1, DNA repair protein RAD52 homolog (Homo sapiens, UniProt P43351); type: functional, biochemical
T1 sequence (P43351 whole entry): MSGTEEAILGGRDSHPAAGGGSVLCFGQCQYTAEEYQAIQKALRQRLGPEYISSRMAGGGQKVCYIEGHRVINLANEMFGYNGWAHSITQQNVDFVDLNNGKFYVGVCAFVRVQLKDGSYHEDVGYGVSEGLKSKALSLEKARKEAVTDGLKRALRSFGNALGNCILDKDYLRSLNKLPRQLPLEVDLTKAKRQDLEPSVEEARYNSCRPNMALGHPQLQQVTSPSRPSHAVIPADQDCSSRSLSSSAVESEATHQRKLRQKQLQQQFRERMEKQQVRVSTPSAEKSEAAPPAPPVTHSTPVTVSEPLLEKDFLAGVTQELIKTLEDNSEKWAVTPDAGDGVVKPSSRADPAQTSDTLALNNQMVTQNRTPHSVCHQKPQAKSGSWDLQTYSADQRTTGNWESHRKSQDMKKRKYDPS

[3] = biological target: SWI/SNF-related matrix-associated actin-dependent regulator of chromatin subfamily A member 2 (Homo sapiens, UniProt P51531); test: Luminescence-based cell-based high throughput dose response assay to identify activators of the function of SWI/SNF related, matrix associated, actin dependent regulator of chromatin, subfamily a, member 2 (SMARCA2, BRM).; type: functional
[4] = biological target: E3 ubiquitin-protein ligase UHRF1 (Homo sapiens, UniProt Q96T88); test: Counterscreen for inhibitors of 5-meCpG-binding domain protein 2 (MBD2): TRFRET-based biochemical high throughput dose response assay to identify inhibitors of binding of ubiquitin-like with PHD and ring finger domains 1 (UHRF1) to methylated oligonucleotide.
E3 ubiquitin-protein ligase UHRF1, sequence (Q96T88 whole entry, the tested form may be a part): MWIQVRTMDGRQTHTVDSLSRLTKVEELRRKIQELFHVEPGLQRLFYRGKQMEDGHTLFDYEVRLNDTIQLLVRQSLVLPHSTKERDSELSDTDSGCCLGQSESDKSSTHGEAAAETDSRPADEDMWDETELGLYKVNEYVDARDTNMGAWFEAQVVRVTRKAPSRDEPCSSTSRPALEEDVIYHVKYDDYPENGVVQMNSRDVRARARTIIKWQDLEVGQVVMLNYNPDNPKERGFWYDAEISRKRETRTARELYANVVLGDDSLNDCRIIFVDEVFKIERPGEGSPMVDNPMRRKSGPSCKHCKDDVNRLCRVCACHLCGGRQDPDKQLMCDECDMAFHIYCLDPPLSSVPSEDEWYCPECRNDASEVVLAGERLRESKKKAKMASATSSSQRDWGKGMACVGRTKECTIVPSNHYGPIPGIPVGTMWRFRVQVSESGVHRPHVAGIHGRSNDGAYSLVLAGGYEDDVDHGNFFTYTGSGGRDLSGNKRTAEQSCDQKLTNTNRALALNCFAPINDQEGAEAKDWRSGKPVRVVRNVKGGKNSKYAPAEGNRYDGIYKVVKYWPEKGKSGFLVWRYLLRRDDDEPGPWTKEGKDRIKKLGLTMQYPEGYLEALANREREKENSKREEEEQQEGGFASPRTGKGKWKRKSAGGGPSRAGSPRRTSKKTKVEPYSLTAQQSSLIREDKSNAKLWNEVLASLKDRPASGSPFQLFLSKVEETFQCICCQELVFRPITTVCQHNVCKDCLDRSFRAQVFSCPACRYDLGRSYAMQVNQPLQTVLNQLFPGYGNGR

HEK293 [5] = test: cells; details: Homo sapiens
[6] = Counterscreen for activators of the function of SWI/SNF related, matrix associated, actin dependent regulator of chromatin, subfamily a, member 2 (SMARCA2, BRM): Luminescence-based cell-based high throughput dose response assay to identify non-selective compounds using the VP16 reporter assay.; type: functional
HEK293 [7] = test: cells; details: Homo sapiens; remark: listed apart in the source
[8] = biological target: T2, Beta-2 adrenergic receptor (Homo sapiens, UniProt P07550); test: Dose response for HTS for Beta-2AR agonists via FAP method from Powderset3.; type: functional
T2 sequence (P07550 whole entry): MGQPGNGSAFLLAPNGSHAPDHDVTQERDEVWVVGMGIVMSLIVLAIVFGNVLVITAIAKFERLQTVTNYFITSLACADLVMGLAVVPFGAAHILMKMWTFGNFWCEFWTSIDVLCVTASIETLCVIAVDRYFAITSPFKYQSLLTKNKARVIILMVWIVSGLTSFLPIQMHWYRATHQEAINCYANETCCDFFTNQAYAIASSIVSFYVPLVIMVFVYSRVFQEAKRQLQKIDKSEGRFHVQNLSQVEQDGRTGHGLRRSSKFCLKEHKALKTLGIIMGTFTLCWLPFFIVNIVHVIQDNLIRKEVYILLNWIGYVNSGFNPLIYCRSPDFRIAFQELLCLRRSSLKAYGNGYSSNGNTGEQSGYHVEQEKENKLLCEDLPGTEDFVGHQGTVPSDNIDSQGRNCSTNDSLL

[9] = biological target: Neuropeptide Y receptor type 2 (Homo sapiens, UniProt P49146); test: Fluorescence-based cell-based high-throughput dose response assay for agonists of NPY-Y2. [Related pubchem assays: 1703 (Screening assay (CNGC inhibitors).), 1359 (Screening assay (NPY-Y2 potentiators or agonists).), 1304 (Screening assay (NPY-Y1 potentiators or agonists).), 1710 (Screening assay (NPY-Y2 agonists).), 1791 (Summary AID.)]; type: functional
[10] = biological target: T2, Beta-2 adrenergic receptor; test: beta2AR agonists driving receptor internalization, dose response, cell-based, FAP fluorogen, flow cytometry, cherry pick 1 (AID 588763); type: functional
HEK293 [11] = test: Fluorescence-based counterscreen for potentiators or agonists of NPY-Y2: cell-based high-throughput dose response assay to identify inhibitors of cyclic nucleotide gated ion channel (CNGC) activity. In this assay, the parental HEK293 cell line transfected with a cyclic-nucleotide gated ion channel (CNGC)-based cAMP sensor is used to measure inhibition of isoproterenol-induced CNGC activity by test compound.; type: functional; details: Homo sapiens
[12] = biological target: Neuropeptide Y receptor type 1 (Homo sapiens, UniProt P25929); test: Fluorescence-based counterscreen for agonists of NPY-Y2: cell-based high-throughput dose response assay for agonists of NPY-Y1.; type: functional
Neuropeptide Y receptor type 1, sequence (P25929 whole entry): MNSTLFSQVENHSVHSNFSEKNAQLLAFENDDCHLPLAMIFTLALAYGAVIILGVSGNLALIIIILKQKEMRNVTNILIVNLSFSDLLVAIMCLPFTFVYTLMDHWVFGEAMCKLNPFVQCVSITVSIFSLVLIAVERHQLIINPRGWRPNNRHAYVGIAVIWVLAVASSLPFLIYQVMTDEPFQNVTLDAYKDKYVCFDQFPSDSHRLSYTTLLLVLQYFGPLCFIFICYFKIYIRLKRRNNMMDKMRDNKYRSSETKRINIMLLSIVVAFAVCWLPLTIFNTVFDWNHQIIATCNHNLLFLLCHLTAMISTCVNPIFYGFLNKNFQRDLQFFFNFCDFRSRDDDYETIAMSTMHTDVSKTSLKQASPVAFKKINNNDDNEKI

Beta Lactamase [13] = biological target: T3, Beta Lactamase (Pseudomonas aeruginosa, UniProt Q932Y6); test: beta-lactamase reporter inhibitor potency, dose response, artefact control for TLR9-MyD88 binding inhibitor project, BLA reporter cells, FRET fluorescence (AID 588341); type: cell-based;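 also: cell based assay in CHO-K1 cells stably expressing beta-lactamase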
T3 sequence (Q932Y6 whole entry): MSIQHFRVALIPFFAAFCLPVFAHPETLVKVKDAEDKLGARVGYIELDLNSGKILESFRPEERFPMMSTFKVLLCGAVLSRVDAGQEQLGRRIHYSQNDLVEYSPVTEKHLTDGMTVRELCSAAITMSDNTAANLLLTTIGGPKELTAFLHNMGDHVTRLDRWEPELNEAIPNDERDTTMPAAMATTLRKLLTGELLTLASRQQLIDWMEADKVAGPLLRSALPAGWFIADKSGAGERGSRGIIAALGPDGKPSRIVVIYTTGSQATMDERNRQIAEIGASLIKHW

Beta Lactamase [14] = biological target: T3, Beta Lactamase; test: beta-lactamase reporter inhibitor potency, dose response, artefact control for NOD2-RIPK2 interaction inhibitor project, BLA reporter cells, FRET fluorescence (AID 651552); type: functional, cell-based
[15] = HepG2 cell cytotoxicity, dose response, cytotoxicity control for Shn3 inhibitor project, CellTiter-Glo, cherry-picked (AID 624134); type: functional, cell-based
[16] = biological target: Heat shock protein HSP 90-alpha (Homo sapiens, UniProt P07900); type: functional, organism-based
[17] = Shn3 3'UTR reporter inhibitors, dose response, cell-based, Clone20 osteoblasts, firefly luciferase, cherry-picked (AID 624132); type: functional;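 also: firefly luciferase luminescence from reporter carrying the Shn3 3'UTR in osteoblasts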
[18] = Fluorescence-based cell-based high throughput dose response assay for inhibitors of the interaction of nucleotide-binding oligomerization domain containing 2 (NOD2) and the receptor-interacting serine-threonine kinase 2 (RIPK2).; type: functional; details: Homo sapiens
[19] = biological target: T4, Polyadenylate-binding protein 1 (Homo sapiens, UniProt P11940); test: PABP1 MLLE–PAM2 interaction inhibitors, dose response, miRNA deadenylation inhibitor project, biochemical, fluorescence polarization, Cy5-PAM2 peptide, secondary (AID 602260); type: functional; details: read-out: IC50_Mean
T4 sequence (P11940 whole entry, the tested form may be a part): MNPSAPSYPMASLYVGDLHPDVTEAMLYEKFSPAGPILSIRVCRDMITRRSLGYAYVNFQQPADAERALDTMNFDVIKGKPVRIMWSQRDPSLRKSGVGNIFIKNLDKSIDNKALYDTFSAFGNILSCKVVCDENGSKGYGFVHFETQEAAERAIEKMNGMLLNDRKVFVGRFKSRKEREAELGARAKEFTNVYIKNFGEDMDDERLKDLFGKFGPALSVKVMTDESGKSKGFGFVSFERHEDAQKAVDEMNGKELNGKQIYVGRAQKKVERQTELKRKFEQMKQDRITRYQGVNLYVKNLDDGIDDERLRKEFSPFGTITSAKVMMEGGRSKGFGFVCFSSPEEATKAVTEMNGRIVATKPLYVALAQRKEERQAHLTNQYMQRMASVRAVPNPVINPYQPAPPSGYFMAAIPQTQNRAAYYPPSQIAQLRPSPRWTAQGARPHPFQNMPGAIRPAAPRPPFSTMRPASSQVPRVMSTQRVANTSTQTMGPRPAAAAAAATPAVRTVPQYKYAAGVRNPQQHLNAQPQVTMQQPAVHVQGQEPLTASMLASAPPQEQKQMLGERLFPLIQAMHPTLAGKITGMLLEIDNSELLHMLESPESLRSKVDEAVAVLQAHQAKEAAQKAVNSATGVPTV

CHO = test: cytotoxicity in TLR9-MyD88 CHO cells, dose response, cytotoxicity control for TLR9-MyD88 binding inhibitor project, cell-based, luminescence (AID 588339); type: functional, hamster; details: Cricetulus griseus;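 also: CHO cells stably coexpressing TLR9 and MyD88 fusions from primary screen; compound exposure lasted 48 hours before viability readout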
[20] = control 3'UTR Renilla luciferase suppression, dose response, counter-screen for Shn3 inhibitor project, cell-based, Clone20-Shn3RL, cherry-picked (AID 624133); type: functional
[21] = biological target: T4, Polyadenylate-binding protein 1; test: PABP1 MLLE–PAM2 binding inhibitor potency, dose response, biochemical, fluorescence polarization, FITC-PAM2 peptide (AID 602259); type: functional; details: read-out: IC50_Mean
Beta-galactosidase = Beta-galactosidase (Escherichia coli, UniProt Q8VNN2); test: beta-galactosidase enzyme inhibitors and activators, dose response, artefact control for CCR6 antagonist project, biochemical, E. coli enzyme, set 3 (AID 504712); type: functional
Beta-galactosidase, sequence (Q8VNN2 whole entry): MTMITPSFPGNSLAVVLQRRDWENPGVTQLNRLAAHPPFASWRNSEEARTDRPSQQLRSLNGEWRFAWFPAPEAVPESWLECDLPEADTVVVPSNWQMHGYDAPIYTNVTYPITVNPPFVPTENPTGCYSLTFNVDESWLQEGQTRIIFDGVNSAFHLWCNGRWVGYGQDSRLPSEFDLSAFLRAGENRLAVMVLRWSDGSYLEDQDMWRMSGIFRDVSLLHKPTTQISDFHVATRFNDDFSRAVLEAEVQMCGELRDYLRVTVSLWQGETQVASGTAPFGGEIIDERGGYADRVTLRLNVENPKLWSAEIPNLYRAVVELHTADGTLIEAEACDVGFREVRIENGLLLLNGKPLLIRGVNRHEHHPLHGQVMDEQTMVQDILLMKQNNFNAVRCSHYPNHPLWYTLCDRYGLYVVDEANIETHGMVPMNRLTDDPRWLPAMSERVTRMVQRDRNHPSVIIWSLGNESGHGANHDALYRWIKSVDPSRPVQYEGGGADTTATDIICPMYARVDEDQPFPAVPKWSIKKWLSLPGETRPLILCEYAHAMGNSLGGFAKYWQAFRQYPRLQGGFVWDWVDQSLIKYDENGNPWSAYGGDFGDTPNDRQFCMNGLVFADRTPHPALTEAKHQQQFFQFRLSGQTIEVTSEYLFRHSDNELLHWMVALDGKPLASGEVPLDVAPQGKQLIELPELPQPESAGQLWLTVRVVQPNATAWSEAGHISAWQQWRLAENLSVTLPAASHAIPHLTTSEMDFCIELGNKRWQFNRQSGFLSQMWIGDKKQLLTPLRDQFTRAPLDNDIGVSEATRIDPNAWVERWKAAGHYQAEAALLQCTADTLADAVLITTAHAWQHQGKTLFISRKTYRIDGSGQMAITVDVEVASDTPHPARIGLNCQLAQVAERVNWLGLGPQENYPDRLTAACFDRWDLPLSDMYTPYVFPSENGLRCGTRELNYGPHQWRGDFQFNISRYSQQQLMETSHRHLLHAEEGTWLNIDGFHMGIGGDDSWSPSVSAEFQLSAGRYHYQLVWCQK

Jurkat [22] = test: antigen receptor-induced NF-kB inhibitors, dose response, Jurkat, luciferase reporter, luminescence, B- and T-cell (AID 489004); type: functional, cell-based; details: Homo sapiens;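 also: NF-kB luciferase reporter Jurkat cells stimulated with PMA plus ionomycin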
[23] = cytotoxicity in HEK-293T NF-kB-Luc cells, dose response, cytotoxicity control for B/T-cell NF-kB inhibitor project, cell-based, uHTS hits (AID 489019); type: functional;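 also: IC50 reflects cytotoxicity as loss of cell viability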
[24] = cytotoxicity toward DRD oncogenic fibroblasts, dose response, cell-based, non-viral oncogenic, luminescence (AID 1934); type: functional; details: Homo sapiens
BJ [25] = test: cytotoxicity toward BJ-TERT fibroblasts, dose response, cell-based, RAS-independent, luminescence (AID 1933); type: functional; details: Homo sapiens
BJ [26] = test: cytotoxicity toward BJ-TERT-LT-ST fibroblasts, dose response, cell-based, RAS-independent, luminescence (AID 1935); type: functional; details: Homo sapiens;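 also: BJ fibroblasts immortalized with TERT plus LT and ST oncogenes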
BJ [27] = test: cells; type: functional, cell-based; details: Homo sapiens
HEK293 [28] = test: cytotoxicity in HEK293T NF-kB-Luc cells, SAR follow-up, cytotoxicity control for NF-kB activator project, cell-based, resazurin fluorescence (AID 493251); type: functional; details: Homo sapiens
HEK293 [29] = test: SAR Analysis of small molecule inhibitors of T-cell specific antigen receptor-induced NF-kB activation in a HEK-293T cell line using a luminescence assay - Set 2. [Related pubchem assays (depositor defined):AID435003, AID435012, AID489026]; type: functional, cell-based; details: Homo sapiens
Jurkat [30] = test: SAR Analysis of small molecule inhibitors of T-cell specific antigen receptor-induced NF-kB activation in a Jurkat cell line using a luminescence assay - Set 2. [Related pubchem assays (depositor defined):AID435003, AID435012, AID465]; type: functional, cell-based; details: Homo sapiens
[31] = biological target: ATP-dependent molecular chaperone HSP82 (Candida albicans (strain WO-1) (Yeast), UniProt C4YTQ8); test: loss of DOC-induced GRE-beta-galactosidase reporter signal, dose response, Hsp90 inhibitor project, S. cerevisiae, luminescence (AID 2400); type: functional, cell-based;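 also: beta-galactosidase luminescence from glucocorticoid response element reporter as proxy for Hsp90 function; inhibitor potency where signal loss means Hsp90 inhibition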
ATP-dependent molecular chaperone HSP82, sequence (C4YTQ8 whole entry): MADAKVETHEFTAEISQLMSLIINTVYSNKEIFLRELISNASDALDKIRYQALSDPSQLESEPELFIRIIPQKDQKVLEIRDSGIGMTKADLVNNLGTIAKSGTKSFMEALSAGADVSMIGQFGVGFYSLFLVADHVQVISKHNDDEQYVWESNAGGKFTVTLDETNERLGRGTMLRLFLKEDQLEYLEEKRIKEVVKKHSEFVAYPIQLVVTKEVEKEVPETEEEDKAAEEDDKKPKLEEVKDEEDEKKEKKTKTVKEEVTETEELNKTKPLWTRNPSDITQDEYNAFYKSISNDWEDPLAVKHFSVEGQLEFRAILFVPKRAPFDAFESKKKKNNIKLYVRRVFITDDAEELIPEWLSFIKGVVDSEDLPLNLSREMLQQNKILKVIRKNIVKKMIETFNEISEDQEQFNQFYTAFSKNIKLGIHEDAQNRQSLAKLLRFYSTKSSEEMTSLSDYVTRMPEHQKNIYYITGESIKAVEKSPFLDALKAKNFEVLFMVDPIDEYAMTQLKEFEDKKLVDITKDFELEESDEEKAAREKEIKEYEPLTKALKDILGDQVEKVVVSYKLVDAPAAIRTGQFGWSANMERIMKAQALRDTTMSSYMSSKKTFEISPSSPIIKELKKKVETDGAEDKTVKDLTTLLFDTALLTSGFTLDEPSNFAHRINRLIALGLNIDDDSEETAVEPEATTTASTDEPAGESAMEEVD

[32] = biological target: Serine/threonine-protein phosphatase (Candida dubliniensis (strain CD36 / CBS 7987 / NCPF 3949 / NRRLY-17841) (Yeast), UniProt B9W6M3); test: calcineurin pathway inhibitors in yeast reporter, dose response, S. cerevisiae, CDRE-lacZ, luminescence, secondary (AID 2388); type: functional, cell-based;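 also: yeast reporter cells carrying a calcineurin-responsive lacZ construct stimulated with calcium chloride; luminescent beta-galactosidase reporter signal in whole cells rather than isolated phosphatase activity; potency for inhibition where a drop in reporter signal means calcineurin blockade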
Serine/threonine-protein phosphatase, sequence (B9W6M3 whole entry): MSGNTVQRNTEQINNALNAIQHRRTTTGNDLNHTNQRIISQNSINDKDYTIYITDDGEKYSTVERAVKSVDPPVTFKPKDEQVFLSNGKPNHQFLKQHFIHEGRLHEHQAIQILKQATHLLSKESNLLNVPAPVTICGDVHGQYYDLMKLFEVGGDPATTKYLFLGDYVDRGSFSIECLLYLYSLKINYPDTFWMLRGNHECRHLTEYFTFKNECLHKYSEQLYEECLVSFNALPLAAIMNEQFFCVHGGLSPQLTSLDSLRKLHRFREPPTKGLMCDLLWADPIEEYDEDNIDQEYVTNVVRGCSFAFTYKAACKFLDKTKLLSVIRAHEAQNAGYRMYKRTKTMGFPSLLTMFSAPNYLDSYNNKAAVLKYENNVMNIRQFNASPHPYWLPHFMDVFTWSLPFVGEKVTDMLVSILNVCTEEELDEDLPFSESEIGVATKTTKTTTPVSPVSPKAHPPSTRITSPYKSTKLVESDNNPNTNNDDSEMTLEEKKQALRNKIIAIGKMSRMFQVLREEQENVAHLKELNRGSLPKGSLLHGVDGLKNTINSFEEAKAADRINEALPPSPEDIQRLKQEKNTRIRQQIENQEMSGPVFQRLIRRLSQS

[33] = NIH-3T3 fibroblast cytotoxicity, dose response, cytotoxicity control, cell-based, fluorescence, Alamar Blue, secondary assay (AID 2327); type: functional;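 also: NIH-3T3 mouse fibroblasts cultured with fluconazole at 8 µg/mL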
[34] = C. albicans growth with fluconazole, confirmation, fluorescence, retest (AID 2467); type: functional, cell-based

With `c1ccc2c(c1)C1=NCCN1c1ccccc1-2` the IC50 [1] was 9.24 µM (active), the AC50 [2] was 5.19 µM (active) and the EC50 [3] was > 3.38 µM (active). For the same compound, the IC50 [4] was 37 µM (inactive), the EC50 (HEK293 [5]) was > 59.8 µM (inactive) and the EC50 [6] was > 91.3 µM (inactive). The EC50 (HEK293 [7]) was > 59.8 µM (inactive).
In the case of `Clc1ccc(OCc2nnc(SCc3nc4ccccc4[nH]3)n2Cc2ccco2)cc1`, the EC50 [8] was 0.0069 µM (active), the EC50 [9] was > 35.4 µM (not active) and the EC50 [10] was 0.205 µM (active). For the same compound, the EC50 (HEK293 [11]) was > 35.4 µM (not active) and the EC50 [12] was > 35.4 µM (not active).
With `O=C(c1ccccc1)c1ccccc1N1C(=O)C=CC1=O` the IC50 (Beta Lactamase [13]) was 15.3 µM (inactive), the IC50 (Beta Lactamase [14]) was 15.5 µM (inactive) and the AC50 [15] was 24.6 µM (active). The AC50 [16] was 2.21 µM (active), the AC50 [17] was 16.7 µM (active) and the IC50 [18] was 1.99 µM (active). For the same compound, the IC50 [19] was > 66 µM (inactive), the IC50 (CHO) was 2.78 µM (active) and the AC50 [20] was 12.5 µM (active). The IC50 [21] was > 66 µM (inactive) and the IC50 (Beta-galactosidase) was > 66.6 µM (inactive).
In the case of `COc1cc2nc(NC(=O)c3ccccc3)sc(=O)c2cc1OC`, the IC50 (Jurkat [22]) was 0.76 µM (active), the IC50 [23] was > 80 µM (inactive) and the EC50 [24] was 79 µM (active). The EC50 (BJ [25]) was 20.1 µM (active), the EC50 (BJ [26]) was > 150 µM (inconclusive) and the EC50 (BJ [27]) was > 150 µM (not active). The IC50 (HEK293 [28]) was > 80 µM (inactive), the IC50 (HEK293 [29]) was 65.6 µM (inactive) and the IC50 (Jurkat [30]) was 0.56 µM (active).
In the case of `Oc1nc(S)nnc1Cc1ccc(Cl)c(Cl)c1`, the EC50 [31] was > 160 µM (inactive), the EC50 [32] was > 180 µM (inactive) and the EC50 [33] was > 160 µM (inactive). The EC50 [34] was 0.241 µM (active).
